In US20010053777A1, “Drug treatment for restless leg syndrome” (priority 1999, published 2001):

Assays:
[1] = test system: Restless Leg Syndrome (RLS) patients; conditions: cited from earlier work; for effectiveness in RLS: short-term therapy trials or trials cited in the background; for relief from the complaint: a few partly open trials or long-term therapy
patients with RLS = assay: Treatment of 2 patients with RLS: therapeutic history, monotherapy trials and combination therapy; type: in vivo, human; conditions: for side effects: dose-limiting or intolerable
Protocol: 2 patients with RLS (person and person) were treated with a combination therapy of pramipexole and clonidine.
The clonidine was also initially prescribed in a single dose of 0.075 mg two hours before bedtime and increased by 0.075 mg at intervals of 3 days.
2. Treatment with a combination therapy of clonidine and pramipexole After slowly bringing the clonidine therapy to a complete halt and after a treatment-free period of about 1 week, both patients were treated with a combination of 0.088 mg of pramipexole and 0.075 mg of clonidine. […] After 7 days the dosage of pramipexole had been increased to 0.18 mg and the dosage of clonidine to 0.15 mg, two hours before going to nd sleep.

[2] = 0.225 mg (male) / 0.45 mg (female) single dose before bedtime
[3] = 2 RLS patients, previous therapy or monotherapy

CCCN(CCC)CCc1cccc2c1CC(=O)N2 [ropinirol]
effectiveness in RLS [1]: effective

C=CCN1C[C@H](C(=O)N(CCCN(C)C)C(=O)NCC)C[C@@H]2c3cccc4[nH]cc(c34)C[C@H]21 [cabergoline]
effectiveness in RLS [1]: effective

bromocryptine
effectiveness in RLS [1]: effective

Clc1cccc(Cl)c1NC1=NCCN1 [clonidine, 2-(2,6-dichloroanilino)-4,5-dihydroimidazole]
compulsive movements (patients with RLS; [2]): improved | paresthesia felt (patients with RLS; [2]): hardly any | quality of sleep and number of times they woke during the night (patients with RLS; [2]): not changed | side effects (patients with RLS; [3]): dry mouth, dizziness and constipation | perceived symptoms such as paresthesia, compulsive movement and tiredness during the day ([1]; daily doses 0.1-0.9 mg, 4 open trials, 2 double-blind placebo-controlled trials, a single case study): (statistically significant) reduction | sleep latency (polysomnographic) ([1]; daily doses 0.1-0.9 mg): shortened | quality of sleep, frequency of waking or periodic leg movements in sleep (PLMS) ([1]; daily doses 0.1-0.9 mg, polysomnographic): not affected

CCN(CC)C(=O)N[C@H]1C=C2c3cccc4[nH]cc(c34)C[C@H]2N(C)C1 [lisuride]
effectiveness in RLS [1]: effective

CCCN1C[C@H](CSC)C[C@@H]2c3cccc4[nH]cc(c34)C[C@H]21 [pergolide]
side effects (patients with RLS; [3]): nausea, gastrointestinal problems and dizziness | effectiveness in RLS [1]: effective

Cc1nnc2n1-c1sc(Br)cc1C(c1ccccc1Cl)=NC2 [Brotizolam]
falling asleep and sleeping through (patients with RLS; 2 RLS patients, previous therapy): improved

N[C@@H](Cc1ccc(O)c(O)c1)C(=O)O [L-DOPA]
augmentation under therapy (patients with RLS; both RLS patients, previous therapy, disappeared on switch to a dopamine agonist): typical augmentation during the day | relief from the complaint [1]: significant alleviation of the complaint

CC(C)C[C@H]1C(=O)N2CCC[C@H]2[C@]2(O)O[C@](NC(=O)[C@@H]3C[C@@H]4c5cccc6[nH]cc(c56)C[C@H]4N(C)C3)(C(C)C)C(=O)N12 [alpha-dihydroergocryptine]
effectiveness in RLS [1]: effective

NC(=O)N1c2ccccc2C=Cc2ccccc21 [Carbamazepine]
relief from the complaint [1]: only partial relief

CCCN[C@H]1CCc2nc(N)sc2C1 [pramipexole, (S)-2-amino-6-n-propylamino-4,5,6,7-tetrahydro-benzothiazole]
RLS symptoms (discomfort, cramps and pains in the legs, compulsive movement, sleep problems, daytime tiredness) (patients with RLS; [3]): certainly improved | difference from earlier therapy (patients with RLS; pramipexole 0.36 mg (male) / 0.27 mg (female) daily, two hours before bedtime): did not report any difference | effectiveness in RLS [1]: effective
